We go through 2 compounds from patent US8883504B2, “Cell differentiation suppressing agent, method of culturing cells using the same, culture solution, and cultured cell line” (Asahi Kasei Kabushiki Kaisha, priority 2003, dated 2014).

Experiment [1] has as its system cynomolgus monkey ES cells. Put plainly: ES cell differentiation inhibition assay 6, alkaline phosphatase staining. Particulars: for proportion of number of alkaline phosphatase stained colony to number of the total colony, in comparison with DMSO (0.1%): Matrigel-coated dish, cultured for 2 days, FIG. 15. The experiment is classed as cell-based. The protocol: As the medium for culturing cynomolgus monkey ES cells, DME/F-12, 1:1 (SIGMA D6421) was added with respective factors in the final concentration as presented below to prepare a cynomolgus monkey ES cell culture medium: 20% knockout serum replacement: KSR (Invitrogen Corp. made, 10828-028), 1× nonessential amino acids (SIGMA M7145), 2 mM L-Glutamine (SIGMA G7513), 1 mM sodium pyruvate (SIGMA S8636), 1× penicillin/streptomycin solution (SIGMA P0781). The culture medium for a mouse feeder cell used for culturing cynomolgus monkey ES cells was prepared by adding respective factors to DMEM (Invitrogen Corp. made, 11960-044) in the final concentration shown below: 10% bovine fetus serum (Invitrogen Corp. made), 2 mM L-glutamine (Sigma G7513), 1× penicillin/streptomycin solution (Sigma P0781).
Gelatin (SIGMA Corp. made, Type A: from porcine ESkin, G2500) was dissolved in distilled water in 0.1% concentration, and 5 mL of the thus prepared 0.1% sterilized aqueous gelatin solution was added in a 6 cm-diameter cell culture dish, and then left stand at 37° C. for 30 minutes or longer. The aqueous gelatin solution was removed, and 2×10^6 mouse embryonic primary culture cell (Invitrogen Corp. made, YE9284400) treated with mitomycin, C (Kyouwa Hakkou Corp. made) was seeded and cultured by using the culture medium for the feeder cell as described above at 37° C. in 5% CO2 incubator (Tabai Espec Corp. made) for 5 hours or longer. The cynomolgus monkey ES cells (Tanabe Seiyaku, K.K. made) was seeded on mouse embryonic primary culture cell, and cultured and proliferated in 5 mL of cynomolgus monkey ES cell culture medium at 37° C. in 5% CO2 incubator for 3 days.
The cynomolgus monkey ES cells cultured by the method described in (1) culture of cynomolgus monkey ES cells as described above were washed with PBS and, then, a 0.1% collagenase solution (Wako Corp. made, 032-10534) dissolved in DMEM (Invitrogen Corp. made 11960-044), or a trypsin solution (prepared by mixing 10 mL of a 2.5% trypsin solution (Invitrogen Corp. made 15090-046), 20 mL of Knockout Serum Replacement (Invitrogen Corp. made 10828-028), 1 mL of a 100 mM CaCl2 aqueous solution and 69 mL of PBS) was added, and incubation was carried out at 37° C. for 5 minutes. 5 mL of the cynomolgus monkey ES cell culture medium was added, cell colonies were removed by using a small sized pipette and, then, dispersed, transferred to a 15 mL sterilized tube, and centrifuged at 1000 rpm for about 5 minutes by using the micro centrifuge (TOMY SEIKO made) to prepare pellets. The supernatant was removed, and then the cells were suspended again in 5 mL of the fresh ES cell culture medium to obtain the cynomolgus monkey ES cells. […]

A further experiment has as its system mouse ES cell. In words: Subculture of ES cells, alkaline phosphatase quantified by colony assay. It is filed as cell-based. The protocol:
For the ES cells prepared by the method described in (3) preparation of the mouse ES cell of Example 1, 3×10^5 cells were seeded on a 6 cm-diameter cell culture dish coated previously with a 0.1% aqueous gelatin solution to make 4.5 mL of the ES cell assay medium. 0.5 mL of the differentiation inhibiting agent (A to F and a to o) of the present invention, which was dissolved in dimethylsulfoxide (DMSO) or culture medium, or their mixture to make 10 to 40 μg/mL per each dish, or 10^4 units/mL of ESGRO was added. The final concentration of DMSO in the culture medium was 0.1% or lower. As the control, only DMSO was made the final concentration in 0.1% by adding 0.5 mL of a 1% concentration solution diluted with the medium. Culturing was conducted at 37° C. in 5% CO2 incubator for 7 to 30 days. The medium was replaced every day, and the cells were passaged to make 3×10^5 cells/dish for every 2 to 3 days.
The alkaline phosphatase activity of the ES cells cultured for 7 or 30 days by using the differentiation inhibiting agents of the present invention was quantified by applying colony assay. […] The absorbance at 405 nm (O.D.405) and absorbance at 690 nm (O.D.690) of the solution were measured by using the spectrophotometer (Molecular Devices Corp. made, type: SPECTRA MAX190), and the value calculated from O.D.405-O.D.690 was determined as the alkaline phosphatase activity.

Turning to `CC(=O)c1ccc(/N=N/C(C(N)=O)=C2/NC(C)(C)Cc3ccccc32)cc1` [compound B, 2-(4-acetyl-phenylazo)-2-(3,3-dimethyl-3,4-dihydro-2H-isoquinoline-1-ylidene)-acetamide], in experiment [1], the “proportion of number of alkaline phosphatase stained colony to number of the total colony, in comparison with DMSO (0.1%)” value is “significantly higher proportion of colonies stained with alkaline phosphatase”. The “alkaline phosphatase activity of subcultured ES cells in comparison with ES cells cultured by using DMSO (0.1%)” value with mouse ES cell (subcultured for 30 days by adding the compound, FIG. 13) is on record as “increased significantly”.

Take `COc1ccc(N=NC(C(N)=O)=C2NC(C)(C)Cc3ccccc32)cc1` [F, 2-(3,3-dimethyl-3,4-dihydro-2H-isoquinoline-1-ylidene)-2-(4-methoxy-phenylazo)-acetamide]: the “alkaline phosphatase staining of subcultured cells in comparison with DMSO” value in experiment [1] (3rd day after subculture after 3-day culture, FIG. 16) is “stained significantly”. Besides, the “proportion of number of alkaline phosphatase stained colony to number of the total colony, in comparison with DMSO (0.1%)” value in experiment [1] is on record as “significantly higher proportion of colonies stained with alkaline phosphatase”. For the same compound, the “effect on alkaline phosphatase staining in the presence of 6-bromoindirubin-3-oxime” value in experiment [1] (subcultured, in the presence of 6-bromoindirubin-3-oxime, FIG. 16) was “reinforced”. Besides, the “alkaline phosphatase activity of subcultured ES cells in comparison with ES cells cultured by using DMSO (0.1%)” value with mouse ES cell (subcultured in the medium without serum for 7 days by adding the compound, FIG. 14) was “increased significantly”.
